Assay results reported in patent US10857105B2, “Compounds and compositions for intracellular delivery of therapeutic agents” (ModernaTX, Inc., priority 2017, dated 2020).

Key:
[1] = Particle size and polydispersity index of nanoparticle compositions (Zetasizer Nano ZS); assay type: physicochemical
Method in brief: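 Size and PDI measured by Zetasizer Nano ZS in 1×PBS (zeta potential in 15 mM PBS). Lipid nanoparticles contained test ionizable lipid:DSPC:cholesterol:PEG-DMG at 50:10:38.5:1.5 mol % with N1-methyl-pseudouridine mRNA encoding luciferase or hEPO.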

modified luciferase = assay: Luciferase expression in liver, lung, spleen and femur 6 hours after intravenous administration to mice; assay type: in vivo; settings: 6 hours after intravenous 0.5 mpk, mice
Method in brief: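 Nanoparticle formulations of the modified luciferase were given intravenously to mice (n=3) at 0.5 mpk. Bioluminescence was measured after 6 hours as total light flux. Standard MC3 formulation and PBS run as controls.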

IL-6, IP-10 = assay: Cytokine induction (IL-6, IP-10) in mice 6 hours after intravenous administration; assay type: in vivo; set-up: unit not given here; settings: intravenous 0.5 mpk
Description: The introduction of foreign material into a mammalian body induces an innate immune response that promotes cytokine production. Such immune responses to, for example, nanoparticle compositions including therapeutic and/or prophylactics, are undesirable. The induction of certain cytokines is thus measured to evaluate the […] of nanoparticle compositions. The concentrations of various cytokines in mice upon intravenous administration of nanoparticle compositions presented in Table 1A at a dosage of 0.5 mpk was measured at 6 hours. The standard MC3 formulation and a PBS control were also tested. As is evident in Table 7, IL-6 induction was highest for compositions including Compounds 1, 3, 9, 19, and 26, while IP-10 induction was highest for compositions including Compounds 3, 4, 7, 20, and 26. IL-6 induction was lowest for compositions including Compounds 4, 11, 12, and 28. IP-10 induction was lowest for compositions including Compounds 10, 11, 12, 13, 15, 17, and 18.

[2] = Encapsulation efficiency of RNA in nanoparticle compositions (RIBOGREEN assay); assay type: physicochemical
Method in brief: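 Lipid nanoparticles (ionisable lipid:DSPC:cholesterol:PEG-DMG 50:10:38.5:1.5 mol %) carrying N1-methylpseudouridine luciferase or hEPO mRNA diluted to about 5 μg/mL in TE, pH 7.5, with or without 2% Triton X-100, 15 min at 37° C. RiboGreen fluorescence (ex ~480, em ~520 nm) blank-subtracted; free RNA = intact/disrupted signal.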

luciferase (Luc) mRNA = assay: Luciferase expression (whole body bioluminescence) after intravenous administration to mice; assay type: in vivo
Experimental: In order to monitor how effectively various nanoparticle compositions deliver therapeutic and/or prophylactics to targeted cells, different nanparticle compositions including a particular therapeutic and/or prophylactic (for example, a modified or naturally occurring RNA such as an mRNA) are prepared and administered to rodent populations. Mice are intravenously, intramuscularly, intraarterially, or intratumorally administered a single dose including a nanoparticle composition with a formulation such as those provided in Example 3. In some instances, mice may be made to inhale doses. Dose sizes may range from 0.001 mg/kg to 10 mg/kg, where 10 mg/kg describes a dose including 10 mg of a therapeutic and/or, prophylactic in a nanoparticle composition for each 1 kg of body mass of the mouse. A control composition including PBS may also be employed.
Upon administration of nanoparticle compositions to mice, dose delivery profiles, dose responses, and toxicity of particular formulations and doses thereof can be measured by enzyme-linked immunosorbent assays (ELISA), bioluminescent imaging, or other methods. For nanoparticle compositions including mRNA, time courses of protein expression can also be evaluated. Samples collected from the rodents for evaluation may include blood, sera, and tissue (for example, muscle tissue from the site of an intramuscular injection and internal tissue); sample collection may involve sacrifice of the animals.
The efficacy of the nanoparticle compositions presented in Table 1A was evaluated with a bioluminescence study. Formulations were administered intravenously to mice (n=6) at a dosage of 0.5 mg/kg (mpk) and bioluminescence measured at 3, 6, and 24 hour time points. The standard MC3 formulation and, in some instances, a control (e.g., a PBS control) were evaluated for comparison. […] In general, flux decreased as time progressed to less than 10% of the initial flux.
The total flux (measured by area under the curve, AUC) induced by administration of a formulation including a given lipid relative to that induced by administration of a formulation including MC3 was also measured for several lipids.

[3] = Table 1A, lipid:DSPC:cholesterol:PEG-DMG 50:10:38.5:1.5 mol %
[4] = Table 1D, compositions for subcutaneous administration, # formulated with hEPO mRNA
[5] = intravenous administration (Table 3D)
[6] = Table 1B, formulated with hEPO mRNA

SMILES	Size [1, 3] [nm]	Cytokine induction, IL-6 (IL-6, IP-10)	Cytokine induction, IP-10 (IL-6, IP-10)	EE [2, 3] [%]	Size [1, 4] [nm]	Size [1, 6] [nm]	Size ([1]; Table 1E, compositions for subcutaneous administration) [nm]	EE [2, 6] [%]	Total Flux, Femur (modified luciferase)	Total Flux, Liver (modified luciferase)	Total Flux, Lung (modified luciferase)	Total Flux, Spleen (modified luciferase)	AUC (luciferase (Luc) mRNA; [5]) [p/s*h]	AUC (luciferase (Luc) mRNA; i.v. administration (Table 3C)) [h*p/s]	Novel lipid/MC3 expression ratio, i.v. (luciferase (Luc) mRNA; intravenous, luciferase, 6 hr. time point, relative to MC3 formulation)
CCCCCCCCCCCCCCCCCCN(CCO)CCCCCCCC(=O)OC(CCCCCCCC)CCCCCCCC [Compound 1, Heptadecan-9-yl 8-((2-hydroxyethyl)(octadecyl)amino)octanoate]	72.7	267.24	687.14	–	–	–	–	–	7.52E+05	4.02E+08	1.72E+06	4.27E+06	–	–	–
CCCCCCCCC(CCCCCCCC)OC(=O)CCCCCCCN(CCO)CCCCCC [Compound 5, Heptadecan-9-yl 8-(hexyl(2-hydroxyethyl)amino)octanoate]	–	94.07	487.16	77.07	–	–	–	–	1.22E+06	5.84E+07	1.89E+06	1.55E+08	–	–	–
CCCCCCCCC(CCCCCCCC)OC(=O)CCCCCCCN(CCO)CCCCCCCC(=O)OCC1CC1CCCCCC (stereo not shown) [Compound 28, Heptadecan-9-yl 8-((8-((2-hexylcyclopropyl)methoxy)-8-oxooctyl)(2-hydroxyethyl)amino)octanoate]	99.4	17.47	283.13	–	–	–	–	–	–	1.22E+10	2.17E+08	1.80E+08	–	–	–
CCCCCCCCCC(=O)OCCCCCCCN(CCO)CCCCCCCC(=O)OC(CCCCCCCC)CCCCCCCC [Compound 96, 7-((8-(Heptadecan-9-yloxy)-8-oxooctyl)(2-hydroxyethyl)amino)heptyl decanoate]	120.5	–	–	79.04	82.6	–	–	–	–	1.56E+10	3.43E+07	3.39E+08	1.209E+012	–	–
CCCCCCCCCOC(=O)CCCCCCCN(CCCCCCCC(=O)OC(CCCCCCCC)CCCCCCCC)CCN1CCOCC1 [Compound 103, Heptadecan-9-yl 8-((2-morpholinoethyl)(8-(nonyloxy)-8-oxooctyl)amino)octanoate]	78.8	–	–	90.77	–	–	–	–	–	8.48E+07	2.06E+05	2.65E+06	–	2.4E+10	–
CCCCCCCCCOC(=O)CCCCCCCN(CCCCCCCC(=O)OC(CCCCCCCC)CCCCCCCC)CCCNC(C)=O [Compound 108, Heptadecan-9-yl 8-((3-acetamidopropyl)(8-(nonyloxy)-8-oxooctyl)amino)octanoate]	119	–	–	96	–	89.6	96.1	95.38	–	4.63E+08	9.81E+06	7.82E+08	–	–	0.40
CCCCCCCCC(CCCCCC)C(=O)OCCCCCCCCCN(CCO)CCCCCCCCCOC(=O)C(CCCCCC)CCCCCCCC (stereo not shown) [Compound 133, ((2-Hydroxyethyl)azanediyl)bis(nonane-9,1-diyl) bis(2-hexyldecanoate)]	66.0	–	–	91.48	–	–	–	–	–	2.94E+09	3.18E+06	1.77E+07	–	3.62E+11	–
CCCCCCCCC(C)OC(=O)CCCCCCCN(CCO)CCCCCCCOC(=O)C(CCCCCCCC)CCCCCCCC (stereo not shown) [Compound 135, 7-((8-(Decan-2-yloxy)-8-oxooctyl)(2-hydroxyethyl)amino)heptyl 2-octyldecanoate]	89.5	–	–	90.20	–	–	–	–	–	1.65E+10	2.71E+07	1.39E+08	–	1.25E+12	–
CCCCCCCCCOC(=O)CCCCCCCN(CCO)CCCCCCCCCC(=O)OC(CCCCCC)CCCCCC [Compound 147, Tridecan-7-yl 10-((2-hydroxyethyl)(8-(nonyloxy)-8-oxooctyl)amino)decanoate]	99.5	–	–	88.31	–	111.9	–	91.0	–	5.24E+09	6.73E+06	8.57E+07	–	5.63E+11	–
CCCCCCCCCC(=O)OCCCCCCCN(CCO)CCCCCCCOC(=O)C(CCCCCCCC)CCCCCCCC [Compound 151, 7-((7-(Decanoyloxy)heptyl)(2-hydroxyethyl)amino)heptyl 2-octyldecanoate]	105.7	–	–	87.86	77.6	–	–	–	–	4.72E+09	9.20E+06	9.27E+07	7.010E+011	–	–

More lines, main results first:

Size [1, 3] [nm]	Cytokine induction, IL-6 (IL-6, IP-10)	Cytokine induction, IP-10 (IL-6, IP-10)	EE [2, 3] [%]	Size [1, 4] [nm]	Size [1, 6] [nm]	Size ([1]; Table 1E, compositions for subcutaneous administration) [nm]	EE [2, 6] [%]	SMILES	Total Flux, Femur (modified luciferase)	Total Flux, Liver (modified luciferase)	Total Flux, Lung (modified luciferase)	Total Flux, Spleen (modified luciferase)	AUC (luciferase (Luc) mRNA; [5]) [p/s*h]	AUC (luciferase (Luc) mRNA; i.v. administration (Table 3C)) [h*p/s]	Novel lipid/MC3 expression ratio, i.v. (luciferase (Luc) mRNA; intravenous, luciferase, 6 hr. time point, relative to MC3 formulation)
85.6	–	–	94.62	–	–	–	–	CCCCCCCCCOC(=O)CCCCCCCN(CCO)CCCCCCCCCOC(=O)C(CCCCCC)CCCCCCCC (stereo not shown) [Compound 134, 9-((2-Hydroxyethyl)(8-(nonyloxy)-8-oxooctyl)amino)nonyl 2-hexyldecanoate]	–	1.73E+09	2.82E+06	1.85E+07	–	3.43E+11	–
–	23.57	153.36	78.2	–	–	–	–	CCCCCC/C=C\COC(=O)CCCCCCCN(CCO)CCCCCCCC(=O)OC/C=C\CCCCCC [Compound 139, Di((Z)-non-2-en-1-yl) 8,8′-((2-hydroxyethyl)azanediyl)dioctanoate]	5.12E+04	8.27E+05	5.26E+04	2.10E+06	–	–	–
97.0	–	–	91.94	–	–	–	–	CCCCCCCCC(CCCCCCCC)OC(=O)CCCCCCCN(CCO)CCCCCC(=O)N(C)CCCCCCCC [Compound 146, Heptadecan-9-yl 8-((2-hydroxyethyl)(6-(methyl(octyl)amino)-6-oxohexyl)amino)octanoate]	–	7.24E+06	3.88E+06	5.11E+07	–	1.04E+09	–
63.1	–	–	96.72	–	–	–	–	CCCCCCCCC(CCCCCCCC)OC(=O)CCCCCCCN(C)CCCCCCCCCCCC(=O)OCCCCC [Compound 150, Pentyl 12-((8-(heptadecan-9-yloxy)-8-oxooctyl)(methyl)amino)dodecanoate]	–	1.54E+09	2.20E+06	3.43E+07	2.704E+011	–	–
92.9	–	–	94.28	–	–	–	–	CCCCCCCCCOC(=O)CCCCCCCN(CCCCCCCC(=O)OC(CCCCCCCC)CCCCCCCC)CCOCCO [Compound 154, Heptadecan-9-yl 8-((2-(2-hydroxyethoxy)ethyl)(8-(nonyloxy)-8-oxooctyl)amino)octanoate]	–	3.62E+08	2.89E+06	1.30E+07	5.560E+010	–	–
